From ChEMBL document CHEMBL4368855, “Novel tricyclic glycal-based TRIB1 inducers that reprogram LDL metabolism in hepatic cells” (Medchemcomm, 2018)
In brackets after ≈: the same amount, converted by molar mass.

Experiments:
HepG2 [1] = experiment: Up regulation of LDLR gene expression in human HepG2 cells measured after 6 hrs by qRT-PCR analysis; assay type: functional, cell-based; details: HepG2, 6 h
[2] = AUC (infinity) in C57BL/6 mouse plasma at 10 mg/kg, ip administered as single dose by mass spectrometry; assay type: ADME, organism-based; design: dose 10 mg/kg, route intraperitoneal, time infinity; details: in vivo
[3] = Half life in C57BL/6 mouse plasma at 10 mg/kg, ip administered as single dose by mass spectrometry; assay type: ADME, organism-based
[4] = Solubility of the compound in 1% DMSO/phosphate buffered saline at pH 7.4 incubated for 18 hrs under shaking condition by UPLC/MS analysis; assay type: physicochemical
[5] = Cmax in C57BL/6 mouse liver at 10 mg/kg, ip administered as single dose by mass spectrometry; assay type: ADME, organism-based; design: dose 10 mg/kg, route intraperitoneal
HepG2 [6] = experiment: Up regulation of LDLR gene expression in human HepG2 cells measured after 6 hrs by qRT-PCR analysis relative to control; assay type: functional
[7] = Unbound fraction in C57BL/6 mouse liver at 10 mg/kg, ip administered as single dose by mass spectrometry; assay type: ADME, organism-based
[8] = Clearance in C57BL/6 mouse plasma at 10 mg/kg, ip administered as single dose by mass spectrometry; assay type: ADME, organism-based
[9] = Apparent volume of distribution in C57BL/6 mouse plasma at 10 mg/kg, ip administered as single dose by mass spectrometry; assay type: ADME, organism-based; details: in vivo
HepG2 [10] = experiment: Up regulation of TRIB1 gene expression in human HepG2 cells measured after 6 hrs by qRT-PCR analysis; assay type: functional, cell-based; details: HepG2, 6 h
[11] = Cmax in C57BL/6 mouse plasma at 10 mg/kg, ip administered as single dose by mass spectrometry; assay type: ADME, organism-based; design: dose 10 mg/kg, route intraperitoneal
HepG2 [12] = experiment: Up regulation of TRIB1 gene expression in human HepG2 cells measured after 6 hrs by qRT-PCR analysis relative to control; assay type: functional
[13] = Stability in mouse liver microsomes assessed as parent compound remaining at 1 uM incubated for 60 mins under shaking condition by UPLC/MS analysis; assay type: ADME, Microsome; details: read-out: Stability
HepG2 [14] = experiment: Down regulation of PCSK9 gene expression in human HepG2 cells measured after 24 hrs by qRT-PCR analysis; assay type: functional, cell-based; details: HepG2, 24 h
[15] = AUC (infinity) in C57BL/6 mouse liver at 10 mg/kg, ip administered as single dose by mass spectrometry; assay type: ADME, organism-based; design: dose 10 mg/kg, route intraperitoneal, time infinity; details: in vivo
[16] = Half life in C57BL/6 mouse liver at 10 mg/kg, ip administered as single dose by mass spectrometry; assay type: ADME, organism-based
[17] = Tmax in C57BL/6 mouse liver at 10 mg/kg, ip administered as single dose by mass spectrometry; assay type: ADME, organism-based
[18] = Tmax in C57BL/6 mouse plasma at 10 mg/kg, ip administered as single dose by mass spectrometry; assay type: ADME, organism-based
[19] = Apparent volume of distribution in C57BL/6 mouse liver at 10 mg/kg, ip administered as single dose by mass spectrometry; assay type: ADME, organism-based; details: in vivo

Row | SMILES | EC50 (HepG2 [1]) [nM] | AUC [2] [µg/L/h] | half-life [3] [h] | solubility kinetic at 18 h [4] [µM] | Cmax [5] [ng/mL] | max activation (HepG2 [6]) | fraction unbound [7] | CL/F [8] [mL/min/kg] | Vz [9] [L/kg] | EC50 (HepG2 [10]) [nM] | Cmax [11] [ng/mL] | max activation (HepG2 [12]) | remaining at 1 h, 1 µM [13] [%] | EC50 (HepG2 [14]) [nM] | AUC [15] [µg/L/h] | half-life [16] [h] | Tmax [17] [h] | Tmax [18] [h] | Vz [19] [L/kg]
1 | CN1C(=O)c2cc(NC(=O)c3ccc(C(F)(F)F)cc3)ccc2OC[C@@H]2O[C@H](CNc3nnc(C4CCC4)o3)CC[C@@H]21 | 1450 | 6464 | 1.46 | 27.5 (≈ 16.1 µg/mL) | 13800 | 3.8 | 0.02 | 25.8 | 3.25 | 320 | 3050 | 4.6 | 18 | 95 | 35928 | 1.78 | 1 | 1 | 0.72
2 | CN1C(=O)c2cc(NC(=O)c3ccc(C(F)(F)F)cc3)ccc2OC[C@@H]2O[C@H](CNC(=O)[C@@H]3CCCO3)CC[C@@H]21 | 2450 | – | – | 90 (≈ 50.5 µg/mL) | – | 4.3 | – | – | – | 1100 | – | 3.7 | 54 | 25 | – | – | – | – | –
3 | CN1C(=O)c2cc(NC(=O)c3ccc(C(F)(F)F)cc3)ccc2OC[C@@H]2O[C@H](CNC(=O)CC(C)(C)C)CC[C@@H]21 | 500 | – | – | 6 (≈ 3.37 µg/mL) | – | 1.9 | – | – | – | 720 | – | 6.6 | 0 | 100 | – | – | – | – | –
